Experimental data as given in ChEMBL document CHEMBL1127225, “Gem-cycloalkyl substituted thiol inhibitors of neutral endopeptidase 24.11. Synthesis via nucleophilic opening of 2,2-spiro--lactones” (Bioorg Med Chem Lett, 1993).

Biological target: T1, Neprilysin (Rattus norvegicus, UniProt P07861)
T1 sequence (P07861 whole entry): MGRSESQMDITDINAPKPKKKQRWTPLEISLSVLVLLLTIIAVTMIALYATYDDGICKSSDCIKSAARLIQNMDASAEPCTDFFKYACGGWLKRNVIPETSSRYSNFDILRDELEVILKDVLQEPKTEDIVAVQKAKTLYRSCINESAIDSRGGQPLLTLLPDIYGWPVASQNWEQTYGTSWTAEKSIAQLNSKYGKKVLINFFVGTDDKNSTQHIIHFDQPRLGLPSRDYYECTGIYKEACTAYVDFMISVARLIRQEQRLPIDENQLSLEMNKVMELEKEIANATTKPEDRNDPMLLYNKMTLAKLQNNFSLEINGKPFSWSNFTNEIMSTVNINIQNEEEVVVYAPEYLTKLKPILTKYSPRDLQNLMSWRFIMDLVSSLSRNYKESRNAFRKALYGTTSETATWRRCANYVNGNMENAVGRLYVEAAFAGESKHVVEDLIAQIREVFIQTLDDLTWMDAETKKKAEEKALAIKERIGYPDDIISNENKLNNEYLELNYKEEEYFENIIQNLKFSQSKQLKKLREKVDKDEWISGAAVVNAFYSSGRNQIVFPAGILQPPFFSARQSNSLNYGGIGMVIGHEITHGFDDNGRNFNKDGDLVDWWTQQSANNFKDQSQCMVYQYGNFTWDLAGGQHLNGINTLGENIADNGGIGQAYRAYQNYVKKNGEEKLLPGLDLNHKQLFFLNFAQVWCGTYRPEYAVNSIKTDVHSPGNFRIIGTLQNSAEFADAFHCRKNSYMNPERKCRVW
Test: The compound was tested for its inhibitory activity against neutral endopeptidase ([…]) in rat kidney

| IC50 | SMILES |
| --- | --- |
| 215 nM | O=C(O)[C@H]1CCC[C@@H](NC(=O)C2(CS)CCCC2)C1 |
| 310 nM | O=C(O)[C@H]1CCC[C@@H](NC(=O)C2(CS)CCCCC2)C1 |
| 180 nM | O=C(N[C@@H]1CCC[C@H](C(=O)O)C1)C(CS)Cc1ccccc1 (stereo not given in full) |
| 220 nM | O=C(O)[C@H](Cc1ccccc1)NC(=O)C1(CS)CCCC1 |
| 38 nM | COCCOC[C@H](CC1(C(=O)N[C@H]2CC[C@@H](C(=O)O)CC2)CCCC1)C(=O)O [CANDOXATRILAT] |
